One compound from BindingDB's records for doi:10.1074/jbc.M113.480517 (University of Iowa, 2013) can be followed below.

The structures appear in SMILES notation.

Holding throughout (assay): DNA Methylation Assay
Holding throughout (settings): pH 7.5

For assay [1], the target named is T1, DNA (cytosine-5)-methyltransferase 1 [351-1600] (Homo sapiens, UniProt P26358).
T1 construct: 351-1600
The protocol:
(§1) Assays (0.1 ml) were conducted in 96-well black half-area plates in either a Wallac VICTOR2 or Biotek Synergy Neo plate reader at 37 °C in 10 mM Tris, pH 7.5, 100 mM potassium glutamate, 1 mM MgCl2, 1 mM DTT, 0.1 mg/ml BSA, and 5% glycerol. […] Data were fitted using Prism (GraphPad Software, Inc).

The target in assay [2] is T2, DNA (cytosine-5)-methyltransferase 3A [590-912] (Homo sapiens, UniProt Q9Y6K1).
T2 construct: 590-912
T2 sequence (Q9Y6K1 590-912): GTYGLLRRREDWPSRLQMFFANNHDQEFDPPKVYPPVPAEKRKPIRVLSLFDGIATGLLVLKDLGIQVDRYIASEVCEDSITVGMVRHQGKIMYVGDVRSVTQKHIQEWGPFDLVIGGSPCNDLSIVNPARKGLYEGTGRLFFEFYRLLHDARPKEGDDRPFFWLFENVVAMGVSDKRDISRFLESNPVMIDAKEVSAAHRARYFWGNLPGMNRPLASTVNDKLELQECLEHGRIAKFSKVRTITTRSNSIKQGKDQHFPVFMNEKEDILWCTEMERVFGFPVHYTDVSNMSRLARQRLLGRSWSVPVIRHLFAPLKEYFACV
The protocol:
as §1

Assay [3] deals with Orphan methyltransferase M.SssI (Spiroplasma monobiae (strain ATCC 33825 / MQ-1), UniProt P15840). The protocol: as §1
Orphan methyltransferase M.SssI, sequence (P15840 whole entry): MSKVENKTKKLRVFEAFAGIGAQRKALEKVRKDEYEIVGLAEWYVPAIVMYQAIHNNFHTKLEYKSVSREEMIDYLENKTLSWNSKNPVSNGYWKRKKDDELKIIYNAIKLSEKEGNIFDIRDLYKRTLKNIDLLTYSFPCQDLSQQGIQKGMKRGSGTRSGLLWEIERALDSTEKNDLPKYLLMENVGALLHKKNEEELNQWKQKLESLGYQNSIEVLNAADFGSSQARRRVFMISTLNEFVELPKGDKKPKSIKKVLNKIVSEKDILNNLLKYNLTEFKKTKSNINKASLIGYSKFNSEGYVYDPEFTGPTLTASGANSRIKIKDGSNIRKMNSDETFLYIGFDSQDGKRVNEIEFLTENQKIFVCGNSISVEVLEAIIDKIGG

T1 sequence (P26358 351-1600): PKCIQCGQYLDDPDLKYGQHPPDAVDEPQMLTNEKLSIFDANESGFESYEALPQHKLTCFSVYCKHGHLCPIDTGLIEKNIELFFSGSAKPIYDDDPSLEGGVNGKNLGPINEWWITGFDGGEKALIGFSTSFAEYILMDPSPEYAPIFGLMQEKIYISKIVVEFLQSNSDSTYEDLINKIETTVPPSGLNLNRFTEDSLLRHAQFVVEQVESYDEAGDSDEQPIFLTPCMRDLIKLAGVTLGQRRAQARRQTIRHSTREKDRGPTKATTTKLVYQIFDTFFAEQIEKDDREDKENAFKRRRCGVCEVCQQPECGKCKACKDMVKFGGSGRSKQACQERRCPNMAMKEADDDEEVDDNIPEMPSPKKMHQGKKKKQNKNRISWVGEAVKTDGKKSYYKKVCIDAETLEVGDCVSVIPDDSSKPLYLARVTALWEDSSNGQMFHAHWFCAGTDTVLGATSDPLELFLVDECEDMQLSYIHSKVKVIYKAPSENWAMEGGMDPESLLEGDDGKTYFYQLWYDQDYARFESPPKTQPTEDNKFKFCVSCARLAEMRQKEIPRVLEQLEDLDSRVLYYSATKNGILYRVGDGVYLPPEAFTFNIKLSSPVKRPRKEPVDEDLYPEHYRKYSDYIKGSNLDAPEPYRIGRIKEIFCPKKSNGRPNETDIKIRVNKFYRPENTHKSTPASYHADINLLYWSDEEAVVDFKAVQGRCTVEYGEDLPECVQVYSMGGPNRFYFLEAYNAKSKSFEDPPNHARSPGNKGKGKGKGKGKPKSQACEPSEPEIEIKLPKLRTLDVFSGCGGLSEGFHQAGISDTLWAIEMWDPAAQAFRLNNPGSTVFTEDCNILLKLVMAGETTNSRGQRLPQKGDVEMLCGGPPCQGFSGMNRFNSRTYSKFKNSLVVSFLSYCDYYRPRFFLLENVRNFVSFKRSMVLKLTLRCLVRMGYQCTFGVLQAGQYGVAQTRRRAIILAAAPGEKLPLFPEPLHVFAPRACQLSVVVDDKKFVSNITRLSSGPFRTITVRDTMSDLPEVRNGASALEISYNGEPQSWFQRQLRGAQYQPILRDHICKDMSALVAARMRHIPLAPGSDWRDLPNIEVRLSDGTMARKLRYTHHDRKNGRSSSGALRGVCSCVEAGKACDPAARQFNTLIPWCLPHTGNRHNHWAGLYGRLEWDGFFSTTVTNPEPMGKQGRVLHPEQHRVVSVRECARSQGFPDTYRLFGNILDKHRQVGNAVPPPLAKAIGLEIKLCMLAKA

A word on the IC50: it is the concentration at which inhibition is half-maximal. In the case of `CC(=O)NCCc1ccc(O)c(-c2c(O)c(O)c3c(c2O)C(=O)c2c(cc(O)c(C(=O)O)c2C(=O)O)C3=O)c1`, the IC50 in assay [1] was 19.1 µM; in assay [2], 50.5 µM; in assay [3] it was 53.6 µM.
